Patent US7709500B2, “Chemical compounds” (AstraZeneca AB, priority 2002, dated 2010)
Where a name gives a salt, the structure may show the parent alone.

Legend:
CCR3 = target: T1, CCR3 (Homo sapiens, UniProt P51677); assay: Human eosinophil chemotaxis (eotaxin mediated); type: cell-based; conditions: read-out: % inhibition at 3 nM eotaxin (1 uM compound), human eosinophils
T1 construct: Human eosinophils were isolated from EDTA anticoagulated peripheral blood; endogenous in cells; host or cells: human peripheral blood eosinophils
T1 sequence (P51677 1-355): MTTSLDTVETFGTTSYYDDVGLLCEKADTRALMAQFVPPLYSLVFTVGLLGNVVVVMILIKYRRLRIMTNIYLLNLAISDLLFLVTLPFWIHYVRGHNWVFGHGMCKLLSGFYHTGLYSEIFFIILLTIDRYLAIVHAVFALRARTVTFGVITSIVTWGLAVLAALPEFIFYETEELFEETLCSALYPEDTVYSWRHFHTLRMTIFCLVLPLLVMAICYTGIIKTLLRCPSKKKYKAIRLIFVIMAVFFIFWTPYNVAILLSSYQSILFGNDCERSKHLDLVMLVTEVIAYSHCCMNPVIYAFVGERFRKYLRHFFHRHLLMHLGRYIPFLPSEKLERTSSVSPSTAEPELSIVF

human H1 receptor = target: T2, human H1 receptor (Homo sapiens, UniProt P35367); assay: Histamine H1 receptor binding, competition displacement of [3H]-pyrilamine; conditions: 1 nM [3H]-pyrilamine; membranes from recombinant CHO-K1 cells expressing the human H1 receptor; read-out: H1 pKi/[1328_S] (converted)
T2 construct: purchased Euroscreen SA, Brussels, Belgium ES-390-M; host or cells: recombinant CHO-K1 cells (membranes)
T2 sequence (P35367 whole entry): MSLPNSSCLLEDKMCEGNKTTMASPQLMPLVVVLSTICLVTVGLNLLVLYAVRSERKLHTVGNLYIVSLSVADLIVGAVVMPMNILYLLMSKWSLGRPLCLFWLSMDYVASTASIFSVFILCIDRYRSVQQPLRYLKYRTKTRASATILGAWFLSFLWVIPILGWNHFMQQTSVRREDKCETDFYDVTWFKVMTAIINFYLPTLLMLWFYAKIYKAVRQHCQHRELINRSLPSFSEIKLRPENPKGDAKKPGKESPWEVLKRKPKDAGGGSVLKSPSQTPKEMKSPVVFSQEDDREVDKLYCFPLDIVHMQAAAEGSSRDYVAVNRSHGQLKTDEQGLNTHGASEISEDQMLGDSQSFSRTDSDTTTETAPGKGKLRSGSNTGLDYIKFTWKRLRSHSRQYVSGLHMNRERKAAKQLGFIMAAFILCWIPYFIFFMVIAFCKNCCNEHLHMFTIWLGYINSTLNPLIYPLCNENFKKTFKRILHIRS

Compound | inhibition at 1 µM (CCR3) [%] | Ki (human H1 receptor) [nM]
O=C(NC[C@@H](O)CN1CCC(Oc2ccc(Cl)c(Cl)c2)CC1)c1c[nH]c(=O)c2ccccc12 [Example 10, N-{(2R)-3-[4-(3,4-Dichlorophenoxy)piperidin-1-yl]-2-hydroxypropyl}-1-oxo-1,2-dihydroisoquinoline-4-carboxamide] | 106 | 
Cc1c(Cl)ccc(OC2CCN(C[C@H](O)CNC(=O)c3c[nH]c(=O)c4ccccc34)CC2)c1Cl [Example 17, N-{(2R)-3-[4-(2,4-Dichloro-3-methylphenoxy)piperidin-1-yl]-2-hydroxypropyl}-1-oxo-1,2-dihydroisoquinoline-4-carboxamide] | 103 | 7.94
O=C(NC[C@@H](O)CN1CCC(Oc2ccc(Cl)c(Cl)c2)CC1)n1c(=O)[nH]c2ccccc21 [Example 45, N-{3-[4-(3,4-Dichlorophenoxy)piperidin-1-yl]-2-hydroxypropyl}-2-oxo-2,3-dihydro-1H-benzimidazole-1-carboxamide] | 102 | 
O=C(NC[C@@H](O)CN1CCC(Oc2ccc(Cl)c(Cl)c2)CC1)c1n[nH]c(=O)c2ccccc12 [Example 46, N-{(2R)-3-[4-(3,4-Dichlorophenoxy)piperidin-1-yl]-2-hydroxypropyl}-oxo-3,4-dihydrophthalazine-1-carboxamide] | 105 | 
O=C(NC[C@@H](O)CN1CCC(Oc2ccc(Cl)c(Cl)c2)CC1)c1c[nH]c2ccccc12 [Example 47, N-{(2R)-3-[4-(3,4-Dichlorophenoxy)piperidin-1-yl]-2-hydroxypropyl}-1H-indole-3-carboxamide] | 104 | 7.94
CN(C[C@@H](O)CN1CCC(Oc2ccc(Cl)c(Cl)c2)CC1)C(=O)c1c[nH]c(=O)c2ccccc12 [Example 52, N-{(2S)-3-[4-(3,4-Dichlorophenoxy)piperidin-1-yl]-2-hydroxypropyl}-N-methyl-1-oxo-1,2-dihydroisoquinoline-4-carboxamide] | 95 | 3.98
CN(C[C@@H](O)CN1CCC(Oc2ccc(Cl)c(Cl)c2)CC1)C(=O)c1n[nH]c2ccccc12 [Example 53, N-{(2S)-3-[4-(3,4-Dichlorophenoxy)piperidin-1-yl]-2-hydroxypropyl}-N-methyl-1H-indazole-3-carboxamide] | 105 | 7.94
O=C(NC[C@@H](O)CN1CCC(Oc2ccc(Cl)c(Cl)c2)CC1)[C@@H](O)c1ccccc1 [Example 58, (2S)-N-{(2R)-3-[4-(3,4-Dichlorophenoxy)piperidin-1-yl]-2-hydroxypropyl}-2-hyroxy-2-phenylethanamide] | 104 | 63.1
NC(=O)c1c(OC2CCN(C[C@H](O)CNC(=O)c3c[nH]c(=O)c4ccccc34)CC2)ccc(Cl)c1Cl [Example 132] | 101 | 
Cc1cc(Cl)ccc1OC1CCN(C[C@@H](O)CNC(=O)c2c[nH]c(=O)c3ccccc23)CC1 [Example 186, N-{(2S)-3-[4-(4-Chloro-2-methylphenoxy)piperidin-1-yl]-2-hydroxypropyl}-1-oxo-1,2-dihydroisoquinoline-4-carboxamide acetate salt] | 104 | 12.6
N#Cc1ccc(OC2CCN(C[C@H](O)CNC(=O)c3c[nH]c(=O)c4ccccc34)CC2)cc1Cl [Example 197, N-{(2R)-3-[4-(3-Chloro-4-cyanophenoxy)piperidin-1-yl]-2-hydroxypropyl}-1-oxo-1,2-dihydroisoquinoline-4-carboxamide] | 103 | 
CS(=O)(=O)c1ccc2c(C(=O)NC[C@@H](O)CN3CCC(Oc4ccc(C#N)c(Cl)c4)CC3)c[nH]c(=O)c2c1 [Example 206, N-{(2R)-3-[4-(3-Chloro-4-cyanophenoxy)piperidin-1-yl]-2-hydroxypropyl}-7-(methylsulfonyl)-1-oxo-1,2-dihydroisoquinoline-4-carboxamide] | 99 | 
Cc1c(Cl)ccc(OC2CCN(C[C@H](O)CNC(=O)c3c[nH]c(=O)c4cc(S(C)(=O)=O)ccc34)CC2)c1Cl [Example 215, N-{(2R)-3-[4-(2,4-Dichloro-3-methylphenoxy)piperidin-1-yl]-2-hydroxypropyl}-7-(methylsulfonyl)-1-oxo-1,2-dihydroisoquinoline-4-carboxamide acetate salt] | 103 | 
